Measurements as given in US6348477B1, “Anti-herpesvirus compounds and methods for identifying, making and using same” (Boehringer Ingelheim(Canada) Ltd., priority 1995, dated 2002).
Marks after values point to notes of the source that are not given here.

Columns and labels:
[1] = tested on: Hs-68 cells; experiment: Cytotoxicity noted in the CMV assays (table footnote); type: cell-based; conditions: Group 1 Table 1
Experimental: (§1) Hs-68 cells (ATCC # CRL 1635) were seeded in 96 well microtiter plates at 10,000 cells/well in 100 μL of DMEM medium (Gibco Canada Inc.) supplemented with 10% fetal bovine serum (FBS, Gibco Canada Inc.). The plates were incubated for 3 days at 37° to allow the cells to reach 80-90% confluency prior to the assay.
as §1, with “( ATCC” for “(ATCC”, “12-well” for “96 well microtiter”, “83,000” for “10,000”, “1 mL” for “100 μL”

[2] = target: T1, HSV-1 helicase-primase (Human herpesvirus 1, UniProt P10189+P10236); experiment: HSV-1 DNA-dependent ATPase assay (inhibition of HSV-1 helicase-primase); type: biochemical; conditions: Group 1 Table 1
T1 construct: made in house; host or cells: Sf21 insect cells triply infected with recombinant baculoviruses
Text: A) HSV-1 DNA-Dependent ATP Assay (an in Vitro Assay Based on the Inhibition of HSV-1 Helicase-primase).
a) Preparation of enzyme: HSV-1 helicase-primase holoenzyme was produced in triply infected Sf21 cells using recombinant baculoviruses expressing the UL5, UL8 and UL52 helicase-primase subunits, as described by S. Dracheva et al., J. Biol. Chem. 1995, 270, 14148. The crude enzyme was purified by ammonium sulfate precipitation, Source 15Q® chromatography and Sephacryl® S-300 HR gel filtration (both purification systems can be obtained from Pharmacia Biotech Inc., Montreal, Quebec, Canada), see S. Dracheva et al., supra.
b) Assay: The DNA-dependent ATPase assay, described by J. J. Crute et al., Nucleic Acids Res. 1988, 16, 6585, was modified and used to evaluate the capability of the compounds of Group 1-formula 1 to inhibit HSV-1 helicase-primase activity. The reaction mixtures (80 μL each) contained 40 mM 4-(2-hydroxyethyl)-1-piperazineethanesulfonic acid (HEPES, pH 7.5), 10% (v/v) glycerol, 5.5 mM MgCl2, 1 mM DL-dithiothreitol (DTT), 50 μg/mL acetylated bovine serum albumin, 3.3% (v/v) DMSO, 4 mM ATP, 25 μM single-stranded M13 DNA hybridized to double-tailed 68-mer oligonucleotide and 3 μg/mL HSV-1 helicase-primase. After incubation for 20 min at 34°, formation of inorganic phosphate from hydrolysis of ATP was monitored spectrophotometrically at 650 nm using acidic ammonium molybdate/malachite green reagent, P. A. Lanzetta et al., Anal. Biochem. 1979, 100, 95. DNA-dependent ATPase activity was calculated from the net absorbance change in the presence and absence of inhibition.

[3] = tested on: HCMV (strain AD169); experiment: Inhibition of HCMV replication, plaque reduction assay (PRA, Hs-68 cells); type: cell-based, human cytomegalovirus; conditions: Human betaherpesvirus 5, AD169, Hs68; Group 1 Table 1; read-out: PRA CMV EC50
Experimental: (§2) C) Inhibition of Human Cytomegalovirus (HCMV) replication
(§3) The effect of compounds on the replication of HCMV has been measured by using an ELISA-based assay (ELISA) and a plaque reduction assay (PRA).
as §1, with “( ATCC” for “(ATCC”, “12-well” for “96 well microtiter”, “83,000” for “10,000”, “1 mL” for “100 μL”
The medium was removed from the cells by aspiration. The cells were then infected with approximately 50 PFU of HCMV (strain AD169, ATCC VR-538) in DMEM medium supplemented with 5% inactivated FBS (assay medium). The virus was allowed to adsorb to cells for 2 h at 37°. Following viral adsorption, the medium was removed from the wells by aspiration. The cells were then incubated with or without 1 mL of appropriate concentrations of test reagent in assay medium. After 4 days of incubation at 37°, the medium was exchanged with fresh medium containing test compound and 4 days later the cells were fixed with 1% aqueous formaldehyde and stained with a 2% crystal violet solution in 20% ethanol in water. Microscopic plaques were counted using a stereomicroscope. Drug effects were calculated as a percent reduction in the number of plaques in the presence of each drug concentration compared to the number observed in the absence of drug. Ganciclovir was used as a positive control in all experiments.
The EC50 values obtained according to this assay for certain thiazolyl derivatives of this invention are listed in the following tables under the heading PRA CMV.

[4] = tested on: HCMV (strain AD169); experiment: Inhibition of HCMV replication, ELISA assay (Hs-68 cells, p28); type: cell-based, human cytomegalovirus; conditions: Group 1 Table 1, read-out: ELISA CMV EC50
Experimental: as §2, §3, §1
The medium was removed from wells by aspiration. The cells then were infected at a multiplicity of infection (MOI) of 0.01 PFU/cell with 50 μL of HCMV (strain AD169, ATCC VR-538) in DMEM medium supplemented with 5% heat inactivated FBS (assay medium). The virus was allowed to adsorb to cells for 2 h at 37°. Following viral adsorption, the medium was removed from the wells by aspiration. The cells were washed twice with 200 μL of assay medium to remove unabsorbed virus. The cells were then incubated with or without 100 μL of appropriate concentrations of test reagent in assay medium. After 8 days of incubation at 37°, the extent of viral replication was determined by an ELISA assay which detects the late structural protein p28 of HCMV.
Eight days after infection, the medium was aspirated from the wells. Non-specific binding sites were blocked by adding 200 μL of phosphate buffered saline containing 1% (w/v) bovine serum albumin (blocking buffer) to each well and incubating the plates for 30 min at room temperature. After removal of the blocking buffer by aspiration, the cells were fixed with 100 μL of cold ethanol-acetone solution (95:5) per well. The plates were placed at −20° for 30 min. The plates were washed 4 times with phosphate buffered saline containing 0.05% (v/v) polyoxyethylene sorbitan monolaurate (Tween 20®). Thereafter, 100 μL of mAb UL99 (Advanced Biotechnologies Inc., #13-130-100) recognizing HCMV protein p28 was added to each wells and plates were incubated for 2 h at room temperature. The plates were washed four times with 200 μL of the above-noted phosphate buffered saline/Tween-20® solution. The cells were then incubated with 100 μL of sheep anti-mouse IgGγ horseradish peroxidase conjugated for 2 h at room temperature. The plates were then washed four times with 200 μL of above-noted phosphate buffered saline/Tween-20®solution. Thereafter, 100 μL of ortho phenylenediamine dihydrochloride (OPD, Gibco Canada Inc.) solution was added to each well and the plates were agitated on a microplate shaker for 30 min in the dark. Color development was monitored at 450 nm using a microplate spectrophotometer.
The SAS program was used to calculate the % inhibition of viral replication and to generate EC50 values.
The EC50 values obtained according to this assay method for certain thiazolylphenyl derivatives of this invention are listed in the following tables under the heading ELISA CMV.

[5] = tested on: HSV-1 strain F or KOS; experiment: Inhibition of herpes simplex virus (HSV-1) replication in cell culture (BHK-21 cells, glycoprotein C ELISA); type: cell-based; conditions: Group 1 Table 1
Experimental: B) Inhibition of Herpes Simplex Virus (HSV-1) Replication in Cell Culture
Assay: BHK-21 cells clone 13 (ATCC CCL10) were incubated for two days in 850 cm^2 roller bottles (2×10^7 cells/bottle) with α-MEM medium (Gibco Canada Inc., Burlington, Ontario, Canada) supplemented with 8% (v/v) fetal bovine serum (FBS, Gibco Canada, Inc.). The cells were trypsinized and then 3,000 cells in 100 μL of fresh medium were transferred into each well of a 96-well microtiter plate. The cells were incubated at 37° for a period of 3 days to reach a density of 50,000 cells per well. The cells were washed twice with 100 μL of α-MEM supplemented with 2% heat inactivated FBS and incubated for 1-2 hours in 100 μL of the same medium.
Thereafter, the cells were infected with HSV-1 strain F or KOS (multiplicity of infection=0.05 PFU/cell) in 50 μL of α-MEM supplemented with 2% heat inactivated FBS. Following one hour of virus absorption at 37°, the medium was removed and the cells were washed with α-MEM supplemented with 2% heat inactivated FBS (2×100 μL). The cells were incubated with or without 100 μL of the appropriate concentration of test reagent in α-MEM medium supplemented with 2% heat inactivated FBS. After 24 hours of incubation at 37°, the extent of viral replication was determined by an ELISA assay; for instance, the following assay that detects the late glycoprotein C of HSV-1.
Cells were fixed in the microtiter plate with 100 μL of 0.063% glutaraldehyde in phosphate buffered saline for 30 min at room temperature. The microtiter plate was then washed once with casein blocking solution and blocked with 200 μL of the same solution for one hour at room temperature. Thereafter, 100 μL of mAb C11 recognizing the glycoprotein C of HSV-1 (see E. Trybala et al., Journal of General Virology, 1994, 75, 743) was added to each well for two hours at room temperature. The plate was washed three times with phosphate buffered saline containing 0.05% polyoxyethylene (20) sorbitan monooleate. The cells were incubated with 100 μL of sheep anti-mouse IgG horseradish peroxidase for one hour at room temperature in the dark.
The plate was washed three times with 200 μL of the above-noted phosphate buffer saline preparation, and then once with 0.1 M sodium citrate (pH 4.5). Thereafter, 100 μL of orthophenylenediamine dihydrochloride (OPD, Gibco, Canada Inc.) was added to each well. The plate was agitated on a microplate shaker for 30 min in the dark. Color development was monitored at 450 nm using a microplate spectrophotometer.
SAS was used to calculate % inhibition of viral replication and to generate EC50 values.

T1 sequence (P10189 whole entry): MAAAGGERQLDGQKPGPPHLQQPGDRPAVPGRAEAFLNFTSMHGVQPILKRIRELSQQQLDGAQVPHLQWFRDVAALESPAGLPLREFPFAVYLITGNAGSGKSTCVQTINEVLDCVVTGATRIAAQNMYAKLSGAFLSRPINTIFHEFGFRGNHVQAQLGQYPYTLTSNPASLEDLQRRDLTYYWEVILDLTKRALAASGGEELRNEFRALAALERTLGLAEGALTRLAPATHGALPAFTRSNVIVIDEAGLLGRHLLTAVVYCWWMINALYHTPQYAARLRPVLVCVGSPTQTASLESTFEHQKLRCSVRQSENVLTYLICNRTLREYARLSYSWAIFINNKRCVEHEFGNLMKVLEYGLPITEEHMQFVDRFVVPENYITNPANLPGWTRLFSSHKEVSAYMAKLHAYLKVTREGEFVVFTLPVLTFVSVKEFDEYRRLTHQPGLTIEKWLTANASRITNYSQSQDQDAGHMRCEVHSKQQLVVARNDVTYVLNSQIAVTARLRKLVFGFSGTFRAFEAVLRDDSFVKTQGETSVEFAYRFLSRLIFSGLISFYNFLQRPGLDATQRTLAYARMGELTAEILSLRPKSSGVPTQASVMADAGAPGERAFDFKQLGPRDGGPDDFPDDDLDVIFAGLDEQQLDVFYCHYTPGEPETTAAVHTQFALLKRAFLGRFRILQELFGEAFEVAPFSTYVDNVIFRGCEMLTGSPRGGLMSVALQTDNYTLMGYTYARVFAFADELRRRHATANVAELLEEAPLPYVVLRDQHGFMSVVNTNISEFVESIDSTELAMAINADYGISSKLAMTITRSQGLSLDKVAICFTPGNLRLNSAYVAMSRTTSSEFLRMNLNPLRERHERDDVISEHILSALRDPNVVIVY
T1 sequence (P10192 whole entry, further chain): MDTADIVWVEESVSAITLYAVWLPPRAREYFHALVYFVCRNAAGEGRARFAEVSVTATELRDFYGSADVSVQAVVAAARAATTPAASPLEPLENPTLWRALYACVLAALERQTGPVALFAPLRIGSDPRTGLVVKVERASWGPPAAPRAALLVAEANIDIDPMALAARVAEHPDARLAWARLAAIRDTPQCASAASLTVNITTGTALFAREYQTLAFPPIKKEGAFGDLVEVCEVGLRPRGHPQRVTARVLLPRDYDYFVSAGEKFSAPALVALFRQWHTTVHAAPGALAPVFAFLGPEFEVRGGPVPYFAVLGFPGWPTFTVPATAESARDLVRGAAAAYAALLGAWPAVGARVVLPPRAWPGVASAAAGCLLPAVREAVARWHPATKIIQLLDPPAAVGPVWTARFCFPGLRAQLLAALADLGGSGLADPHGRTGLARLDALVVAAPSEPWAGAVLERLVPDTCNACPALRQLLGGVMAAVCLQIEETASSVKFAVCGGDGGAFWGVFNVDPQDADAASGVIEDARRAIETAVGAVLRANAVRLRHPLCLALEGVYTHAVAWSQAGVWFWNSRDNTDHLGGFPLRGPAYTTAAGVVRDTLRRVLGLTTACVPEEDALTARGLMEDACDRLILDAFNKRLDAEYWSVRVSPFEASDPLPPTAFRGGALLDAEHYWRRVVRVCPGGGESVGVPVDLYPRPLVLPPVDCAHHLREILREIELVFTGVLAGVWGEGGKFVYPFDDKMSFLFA
T1 sequence (P10236 whole entry): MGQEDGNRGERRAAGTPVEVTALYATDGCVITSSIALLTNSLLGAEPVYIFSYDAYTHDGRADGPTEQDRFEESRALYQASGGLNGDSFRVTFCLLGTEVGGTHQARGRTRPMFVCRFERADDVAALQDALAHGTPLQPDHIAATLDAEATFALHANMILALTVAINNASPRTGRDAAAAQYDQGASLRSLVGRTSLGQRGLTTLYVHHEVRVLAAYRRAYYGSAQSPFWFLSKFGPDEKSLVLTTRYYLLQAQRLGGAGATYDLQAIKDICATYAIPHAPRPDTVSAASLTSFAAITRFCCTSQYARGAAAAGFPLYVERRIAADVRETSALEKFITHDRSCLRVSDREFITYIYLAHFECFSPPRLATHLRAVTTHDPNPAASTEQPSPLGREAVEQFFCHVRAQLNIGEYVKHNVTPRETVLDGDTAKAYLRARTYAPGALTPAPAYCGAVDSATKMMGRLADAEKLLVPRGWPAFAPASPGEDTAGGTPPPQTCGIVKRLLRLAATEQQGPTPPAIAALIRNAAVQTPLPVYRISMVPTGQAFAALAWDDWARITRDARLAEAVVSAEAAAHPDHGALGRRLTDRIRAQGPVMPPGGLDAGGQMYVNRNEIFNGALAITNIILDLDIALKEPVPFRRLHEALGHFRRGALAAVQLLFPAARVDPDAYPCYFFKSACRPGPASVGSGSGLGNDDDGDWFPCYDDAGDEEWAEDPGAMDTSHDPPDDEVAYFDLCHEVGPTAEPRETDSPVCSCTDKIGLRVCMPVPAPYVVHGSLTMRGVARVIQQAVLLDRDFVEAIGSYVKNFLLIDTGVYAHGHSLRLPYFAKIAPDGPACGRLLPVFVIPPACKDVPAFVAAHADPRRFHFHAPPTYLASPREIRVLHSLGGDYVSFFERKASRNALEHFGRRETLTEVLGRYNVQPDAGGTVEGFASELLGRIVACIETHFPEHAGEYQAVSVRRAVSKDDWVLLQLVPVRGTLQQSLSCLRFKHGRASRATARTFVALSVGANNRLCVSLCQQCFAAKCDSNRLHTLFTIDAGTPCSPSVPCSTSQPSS

SMILES	melting point	Cytotoxic at this concentration ([1]; asterisk in PRA CMV)	also measured
CCC(CC)C(=O)N(CC(=O)Nc1ccc(-c2csc(N)n2)cc1)Cc1ccccc1 [Example 104]		>18* μM	
Nc1nc(-c2ccc(NC(=O)CN(CC3CCCCC3)S(=O)(=O)N3CCOCC3)cc2)cs1 [Example 107]		12* μM	IC50 [2]: 2600 nM; EC50 [3]: 12000 nM; EC50 ([4]; Human betaherpesvirus 5, AD169, Hs68): 1100 nM
Nc1nc(-c2ccc(NC(=O)CN(CC3CCCCC3)C(=O)C3CCCC3)cc2)cs1 [Example 63]		>21* μM	
CCCC(CCC)N(CC(=O)Nc1ccc(-c2csc(N)n2)cc1)C(=O)OC(C)(C)C [Example 111]			Cytotoxic at this concentration ([1]; asterisk in ELISA CMV column): 4.0* μM
CCCC(CCC)N(CC(=O)Nc1ccc(-c2csc(N)n2)cc1)C(=O)C1CCCCC1 [Example 82]		7* μM	
Cc1ccccc1CN(CC(=O)Nc1ccc(-c2csc(N)n2)cc1)C(=O)Cc1ccccn1 [Example 127]		25* μM	
CC(c1ccccc1)N(CC(=O)Nc1ccc(-c2csc(N)n2)cc1)C(=O)OC(C)(C)C (centres unmarked) [Example 88]			EC50 [5]: 1200 nM; IC50 [2]: 2400 nM; EC50 [4]: > 47000 nM
CC(C)(C)OC(=O)N1CCC[C@H]1C(=O)Nc1ccc(-c2csc(N)n2)cc1 [Example 13, tert-Butyl 2(S)-{{{4-(2-Amino-4-thiazolyl)phenyl}-amino}carbonyl}-1-pyrrolidinecarboxylate]	238 to 239 °C		
Nc1nc(-c2ccc(NC(=O)CN(Cc3ccccc3)C(=O)Cc3cccnc3)cc2)cs1 [Example 113]		>50* μM	
Nc1nc(-c2ccc(NC(=O)CNCC3CCCCC3)cc2)cs1 [Example 3, N-{4-(2-Amino-4-thiazolyl)phenyl}-2-{(cyclohexyl-methyl)amino}acetamide]	164 to 166 °C		

Second part, led by results:

melting point	SMILES	Cytotoxic at this concentration ([1]; asterisk in PRA CMV)	also measured
162 to 163 °C	Nc1nc(-c2ccc(NC(=O)CNCc3ccccc3)cc2)cs1 [Example 2, N-{4-(2-Amino-4-thiazolyl)phenyl}-2-{(phenylmethyl)-amino}acetamide]		
227 to 230 °C	NC(=O)N(Cc1ccc(F)cc1)c1ccc(-c2csc(N)n2)cc1 [Example 2, N-{4-(2-Amino-4-thiazolyl)phenyl}-N-{(4-fluorophenyl)methyl}urea]		
207 to 209 °C	Nc1nc(-c2ccc(NC(=O)[C@@H]3CCCN3Cc3ccccc3)cc2)cs1 [Example 15, N-{4-(2-Amino-4-thiazolyl)phenyl}-1-(phenylmethyl)-2(S)-pyrrolidinecarboxamide]		
132 to 133 °C	Nc1nc(-c2ccc(NC(=O)[C@@H]3CCCN3C(=O)c3ccccc3)cc2)cs1 [Example 14, N-{4-(2-Amino-4-thiazolyl)phenyl}1-benzoyl-2(S)-pyrrolidinecarboxamide]		
245 to 246 °C	Nc1nc(-c2ccc(NC(=O)[C@H]3CCC(=O)N3Cc3ccccc3)cc2)cs1 [Example 12, N-{4-(2-Amino-4-thiazolyl)phenyl}-5-oxo-1-(phenylmethyl)-2(R)-pyrrolidinecarboxamide]		
178 to 179 °C	CCCCN(CCCC)C(=O)C(=O)Nc1ccc(-c2csc(N)n2)cc1 [Example 4, N-{4-(2-Amino-4-thiazolyl)phenyl}-N′,N′-dibutylethanediamide]		
183 to 185 °C	CC(C)(C)OC(=O)N[C@@H](Cc1ccccc1)C(=O)Nc1ccc(-c2csc(N)n2)cc1 [Example 11, tert-Butyl N-{2-{{4-(2-Amino-4-thiazolyl)phenyl}-amino}-2-oxo-1(S)-(phenylmethyl)ethyl}carbamate]		
131 to 133 °C	Nc1nc(-c2ccc(NC(=O)CCNCc3ccccc3)cc2)cs1 [Example 8, N-{4-(2-Amino-4-thiazolyl)phenyl}-3-{(phenylmethyl)-amino}propanamide]		
